The record followed here is patent US11866430B2, “Naphthyridinone compounds useful as T cell activators” (priority 2018, dated 2024).

One may read the pIC50 as the IC50 on a negative log10 scale, so that one unit is a factor of ten. A word on the pEC50: it is the negative decadic logarithm of the EC50, by convention in mol/L.

One assay addresses human DGKα (Homo sapiens (Human), UniProt P23743). As to the kind of experiment: biochemical. Conditions: detergent/lipid micelle substrate; read-out: DGKα IC50. In a few lines:
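Full-length human DGKζ (and DGKα), C-terminal His-tagged, Sf9-expressed, with phosphatidylserine/DAG micelles in 50 mM octyl glucoside; buffer 50 mM MOPS pH 7.5, 100 mM NaCl, 10 mM MgCl2, 1 μM CaCl2, 1 mM DTT.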

Another assay relates to Human venous whole blood. The experiment in a line: Human Whole Blood IFN-γ Assay. In kind it is cell-based. Conditions: human whole blood, anti-CD3 plus anti-CD28 as baseline, 3 μM Example 40 co-stimulation as 100% activation, read-out: INF-γ Whole Blood Normalized Agonist EC50. On the procedure:
Human venous whole blood (22.5 μL per well), obtained from healthy donors, was pre-treated with compounds for one hour at 37° C. in a humidified 95% air/5% CO2 incubator. The blood was stimulated with 2.5 μL anti-human CD3 and anti-CD28 mAb at a final concentration of 1 μg/mL each for 24 hours at 37° C. IFN-γ in the supernatants was measured using AlphaLISA kit (Cat #AL217).

In assay [1] the test system is naïve human CD8 T cells. As to the kind of experiment: cells. Conditions: Homo sapiens, T-cell, read-out: HuCD8 INFG Normalized EC50, anti-CD3 plus anti-CD28 as baseline; 3 μM Example 40 co-stimulation as 100% activation. In short, it runs like this:
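Thawed frozen cells, 40,000/well, stimulated on plate-bound anti-CD3 (coated at 0.05 μg/mL) plus soluble anti-CD28 0.1 μg/mL; compounds added immediately after plating. After 20 h at 37° C., supernatant IFN-γ quantitated by AlphaLISA, counts converted to IFN-γ concentration […].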

In assay [2] the test system is naïve human CD8 T cells. As to the kind of experiment: CellTiter-Glo CD8 T Cell Proliferation Assay. In kind it is cell-based. Conditions: CellTiter-Glo CD8 T cell proliferation, normalized, read-out: CD8 GLO normalized EC50. On the procedure:
Frozen naïve human CD8 T cells were thawed in RPMI+10% FBS, incubated for 2 h in 37° C., and counted. The 384-well tissue culture plate was coated overnight at 4° C. with 20 μl anti-human CD3 at 0.1 μg/mL in plain RPMI, which was removed off the plate before 20 k/40 μl CD8 T cells with 0.5 μg/mL soluble anti-human CD28 were added to each well. The compounds were echoed to the cell plate immediately after the cells were plated. After 72 h incubation at 37° C. incubator, 10 μl CellTiter-glo reagent (Promega catalog number G7570) was added to each well. The plate was vigorously shaken for 5 mins, incubated at room temperature for another 15 mins and read on Envision for CD8 T cell proliferation. In analysis, 0.1 μg/mL anti-CD3 and 0.5 μg/mL anti-CD28 stimulated CD8 T cell signal was background.

Assay [3] relates to pre-activated CD4 T cells and Raji cells. The experiment in a line: Raji CD4 T Cell IL2 Assay. Conditions: Homo sapiens, Raji. The format is cell-based.

pEC50, pIC50: −log10 of the molar value. Where two headings read alike, the source gives them in different places. Bounds are passed on as bounds.

human DGKα, sequence (P23743 other isoform, or with tags, fused parts or gaps): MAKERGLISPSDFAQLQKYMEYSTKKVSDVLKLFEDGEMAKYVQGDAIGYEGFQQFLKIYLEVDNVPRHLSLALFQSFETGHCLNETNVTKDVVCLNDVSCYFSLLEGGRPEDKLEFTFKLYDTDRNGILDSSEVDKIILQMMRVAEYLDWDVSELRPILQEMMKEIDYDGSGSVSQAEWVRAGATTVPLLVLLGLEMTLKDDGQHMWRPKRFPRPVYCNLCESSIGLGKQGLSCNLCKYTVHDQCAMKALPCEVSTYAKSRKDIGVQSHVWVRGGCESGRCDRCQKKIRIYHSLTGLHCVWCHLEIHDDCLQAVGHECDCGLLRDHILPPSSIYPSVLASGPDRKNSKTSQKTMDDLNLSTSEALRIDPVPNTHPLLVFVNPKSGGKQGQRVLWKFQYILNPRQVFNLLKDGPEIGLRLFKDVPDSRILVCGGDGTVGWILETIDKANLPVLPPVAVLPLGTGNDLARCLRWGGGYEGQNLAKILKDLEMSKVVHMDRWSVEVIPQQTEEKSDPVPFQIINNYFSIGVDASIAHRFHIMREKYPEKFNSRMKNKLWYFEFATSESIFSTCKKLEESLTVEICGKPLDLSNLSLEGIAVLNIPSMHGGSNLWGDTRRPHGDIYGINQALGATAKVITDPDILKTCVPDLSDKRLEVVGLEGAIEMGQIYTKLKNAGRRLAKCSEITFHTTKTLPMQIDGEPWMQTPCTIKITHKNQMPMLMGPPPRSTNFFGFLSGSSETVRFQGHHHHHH

With `C#CCn1c(=O)c([N+](=O)[O-])c(N2CCN(C(c3ccc(F)cc3)c3ccc(F)cc3O)CC2)c2nc(C#N)ccc21` (single isomer, unassigned) [Example 121, 8-(4-((4-fluoro-2-hydroxyphenyl)(4-fluorophenyl)methyl)piperazin-1-yl)-7-nitro-6-oxo-5-(prop-2-yn-1-yl)-5,6-dihydro-1,5-naphthyridine-2-carbonitrile], the pIC50 at human DGKα was 5.72. In the assay with Human venous whole blood (Homo sapiens), the pEC50 was 6.26.

Regarding `C#CCn1c(=O)c([N+](=O)[O-])c(N2CCN(C(C)c3ccc(F)cc3)CC2)c2nc(C#N)ccc21` (single isomer, unassigned) [Example 136, 8-(4-(1-(4-fluorophenyl)ethyl)piperazin-1-yl)-7-nitro-6-oxo-5-(prop-2-yn-1-yl)-5,6-dihydro-1,5-naphthyridine-2-carbonitrile], on human DGKα, the pIC50 was 6.68. In the assay with Human venous whole blood, the pEC50 is 5.94.

As to `C#CCn1c(=O)c([N+](=O)[O-])c(N2CCN(C(CC)c3ccc(F)cc3)CC2)c2nc(C#N)ccc21` (single isomer, unassigned) [Example 141, 8-{4-[1-(4-fluorophenyl)propyl]piperazin-1-yl}-7-nitro-6-oxo-5-(prop-2-yn-1-yl)-5,6-dihydro-1,5-naphthyridine-2-carbonitrile], the pIC50 on human DGKα was 6.57. Further, the pEC50 in the assay on naïve human CD8 T cells [1] was 7.52; in the assay with naïve human CD8 T cells [2] (Homo sapiens, T-cell), 8.00.

Regarding `C#CCn1c(=O)c([N+](=O)[O-])c(N2CCN(C(c3ccc(F)cc3)C3CC3)CC2)c2nc(C#N)ccc21` (single isomer, unassigned) [Example 143, 8-(4-(cyclopropyl(4-fluorophenyl)methyl)piperazin-1-yl)-7-nitro-6-oxo-5-(prop-2-yn-1-yl)-5,6-dihydro-1,5-naphthyridine-2-carbonitrile], at human DGKα, the pIC50 is 5.89. Further, the pEC50 in the assay with naïve human CD8 T cells [1] is 7.05; with naïve human CD8 T cells [2] (Homo sapiens, T-cell), 8.00.

In assay [3], `CC(C)C(c1ccc(F)cc1)N1CCN(c2c(C#N)c(=O)n(C)c3ccc(Cl)nc23)CC1` (single isomer, unassigned) [Example 315, 6-chloro-4-{4-[1-(4-fluorophenyl)-2-methylpropyl]piperazin-1-yl}-methyl-2-oxo-1,2-dihydro-1,5-naphthyridine-3-carbonitrile] had a pIC50 of 6.60. In addition, the pEC50 in the assay with naïve human CD8 T cells [2] (Homo sapiens, T-cell) is 5.90.

Take `Cn1c(=O)c(C#N)c(N2CCN(C(CC(C)(C)C)c3ccc(F)cc3)CC2)c2nc(Cl)ccc21` (single isomer, unassigned) [Example 377, 6-chloro-4-{4-[1-(4-fluorophenyl)-3,3-dimethylbutyl]piperazin-1-yl}-1-methyl-2-oxo-1,2-dihydro-1,5-naphthyridine-3-carbonitrile]: the pEC50 in the assay on naïve human CD8 T cells [2] was 5.00.

`Cn1c(=O)c(C#N)c(N2CCN(C(CC(C)(C)C)c3ccc(F)cc3)CC2)c2nc(Cl)ccc21` (single isomer, unassigned) [Example 378, 6-chloro-4-{4-[1-(4-fluorophenyl)-3,3-dimethylbutyl]piperazin-1-yl}-1-methyl-2-oxo-1,2-dihydro-1,5-naphthyridine-3-carbonitrile]: the negative-log EC50 (pEC50) in the assay with naïve human CD8 T cells [2] is 5.76.

Take `Cn1c(=O)c(C#N)c(N2CCN(C(c3ccc(F)cc3)C3CCC3)CC2)c2nc(Cl)ccc21` (single isomer, unassigned) [Example 382, 6-chloro-4-{4-[cyclobutyl(4-fluorophenyl)methyl]piperazin-1-yl}-1-methyl-2-oxo-1,2-dihydro-1,5-naphthyridine-3-carbonitrile]: the negative logarithm of the EC50 (pEC50) in the assay on naïve human CD8 T cells [2] was 5.75.

On to `Cn1c(=O)c(C#N)c(N2CCN(C(c3ccc(F)cc3)C3CCC3)CC2)c2nc(Cl)ccc21` (single isomer, unassigned) [Example 383, 6-chloro-4-{4-[cyclobutyl(4-fluorophenyl)methyl]piperazin-1-yl}-1-methyl-2-oxo-1,2-dihydro-1,5-naphthyridine-3-carbonitrile], for which the pEC50 with naïve human CD8 T cells [2] was 7.22.

For the compound `CC(c1ccc(F)cc1)N1CCN(c2c(C#N)c(=O)n(C)c3ccc(Cl)nc23)CC1` (single isomer, unassigned) [Example 387, 6-chloro-4-{4-[1-(4-fluorophenyl)ethyl]piperazin-1-yl}-1-methyl-2-oxo-1,2-dihydro-1,5-naphthyridine-3-carbonitrile], the pEC50 in the assay on naïve human CD8 T cells [2] is 6.74.

In the case of `CC(c1ccc(F)cc1)N1CCN(c2c(C#N)c(=O)n(C)c3ccc(Cl)nc23)CC1` (single isomer, unassigned) [Example 388, 6-chloro-4-{4-[1-(4-fluorophenyl)ethyl]piperazin-1-yl}-1-methyl-2-oxo-1,2-dihydro-1,5-naphthyridine-3-carbonitrile], the pIC50 at human DGKα is 7.28. Also, the pEC50 with naïve human CD8 T cells [2] was 6.32.

Turning to `Cn1c(=O)c(C#N)c(N2CCN(C(c3ccc(F)cc3)c3ccccc3O)CC2)c2nc(C#N)ccc21` (stereo not drawn) [Example 11, 8-{4-[(4-fluorophenyl)(2-hydroxyphenyl)methyl]piperazin-1-yl}-5-methyl-6-oxo-5,6-dihydro-1,5-naphthyridine-2,7-dicarbonitrile], at human DGKα, the negative-log IC50 (pIC50) was 6.35.

Regarding `Cn1c(=O)c([N+](=O)[O-])c(N2CCN(CC(O)c3ccc(F)cc3)CC2)c2nc(C#N)ccc21` (stereo not drawn) [Example 36, 8-{4-[2-(4-fluorophenyl)-2-hydroxyethyl]piperazin-1-yl}-5-methyl-7-nitro-6-oxo-5,6-dihydro-1,5-naphthyridine-2-carbonitrile], the pIC50 on human DGKα was 5.85.

As for `CCCCn1c(=O)c([N+](=O)[O-])c(N2CCN(C(c3ccccc3)c3ccccc3)CC2)c2ncccc21` [Example 177, 4-(4-benzhydrylpiperazin-1-yl)-1-butyl-3-nitro-1,5-naphthyridin-2(1H)-one], in the assay with naïve human CD8 T cells [2] (Homo sapiens, T-cell), the negative-log EC50 (pEC50) was 5.00.

For the compound `Cc1ccc2c(n1)c(N1CCN(C(C)c3ccc(F)cc3)CC1)c(Br)c(=O)n2C` (stereo not drawn) [Example 224, 3-bromo-4-(4-(1-(4-fluorophenyl)ethyl)piperazin-1-yl)-1,6-dimethyl-1,5-naphthyridin-2(1H)-one], at human DGKα, the negative logarithm of the IC50 (pIC50) is 6.27. Besides, the negative logarithm of the EC50 (pEC50) with naïve human CD8 T cells [2] (Homo sapiens, T-cell) is 5.37.

With `Cc1ccc(CN2CCN(c3c(C#N)c(=O)n(C)c4ccc(Br)nc34)CC2)c(O)c1` [Example 372, 6-bromo-4-{4-[(2-hydroxy-4-methylphenyl)methyl]piperazin-1-yl}-1-methyl-2-oxo-1,2-dihydro-1,5-naphthyridine-3-carbonitrile], the pIC50 is less than 4.00 in assay [3] and 7.48 on human DGKα. The pEC50 with Human venous whole blood (Homo sapiens) is 5.30.

Turning to `Cc1ccc2c(n1)c(N1CCN(Cc3cccc(Cl)c3O)CC1)c(C#N)c(=O)n2C` [Example 389, 4-{4-[(3-chloro-2-hydroxyphenyl)methyl]piperazin-1-yl}-1,6-dimethyl-2-oxo-1,2-dihydro-1,5-naphthyridine-3-carbonitrile], the pIC50 on human DGKα is 6.07.

With `Cc1cccc(CN2CCN(c3c(C#N)c(=O)n(C)c4ccc(Cl)nc34)CC2)c1O` [Example 391, 6-chloro-4-{4-[(2-hydroxy-3-methylphenyl)methyl]piperazin-1-yl}-1-methyl-2-oxo-1,2-dihydro-1,5-naphthyridine-3-carbonitrile], the pIC50 at human DGKα was 6.59. In the assay on Human venous whole blood (Homo sapiens), the pEC50 was 5.46.

Regarding `Cn1c(=O)c([N+](=O)[O-])c(N2CCN(Cc3cccc4ccccc34)CC2)c2nc(C#N)ccc21` [Example 415, 5-methyl-8-{4-[(naphthalen-1-yl)methyl]piperazin-1-yl}-7-nitro-6-oxo-5,6-dihydro-1,5-naphthyridine-2-carbonitrile], the negative-log EC50 (pEC50) with naïve human CD8 T cells [2] (Homo sapiens, T-cell) was 7.70.

Consider `COc1cc(C#N)ccc1CN1CCN(c2c(C#N)c(=O)n(C)c3ccc(Cl)nc23)CC1` [Example 424, 6-chloro-4-{4-[(4-cyano-2-methoxyphenyl)methyl]piperazin-1-yl}-1-methyl-2-oxo-1,2-dihydro-1,5-naphthyridine-3-carbonitrile], for which the pIC50 was less than 4.00 in assay [3] and 6.11 on human DGKα.
